Data: patent publication US4843158A, “[2,2,1]Cryptand compounds that selectively bind sodium” (priority 1985, dated 1989)

Key:
[1] = Cation binding titration, sodium (fluorescence and 19F NMR titrations); settings: for Cation Binding Constant (log k), Na+: 37° C.
Procedure: (§1) Fluorescence titrations: Ionic titrations of chelator fluorescence were performed on a Perkin Elmer 44E spectrofluorometer at a chelator concentration of 10 μM in 100 mM tris/acetic acid buffer at 37° C. Fluorescence emission from all of the chelators was monitored at a constant wavelength between 370 and 390 nm. The excitation spectra from 210 to 350 nm were recorded in the ratio mode and the proportion of M^n+ chelator complex was calculated from the fluorescence intensities at the most sensitive excitation wavelengths. The binding constants were estimated graphically from plots of log (bound/free) chelator against log free [M^n+ ]. (Slopes were 1.00±<0.05).
(§2) NMR titrations: Nmr spectra were recorded on Bruker WH 200 or Am 400 spectrometers at 188 or 376 MHz respectively at chelator concentrations between 5 and 10 mM in the same buffer as for fluorescence titrations but containing 20% D2 O at 37° C. The spectra were obtained with an acquisition time of 1.0 sec. and a 90° pulse and were processed with resolution enhancement (-0.5 of the observed line width) and appropriate gaussian sensitivity enhancement. The proportion of M^n+ -chelator complex was calculated from the integrals of the resolved free and bound chelator ^19 F resonances, or from the chemical shift of complexes in fast exchange. The apparent affinities were determined graphically as for the fluorescence data, but using a two step iteration from the affinity derived from the fluorescence data when the dissociation constant was close to the chelator concentration in the nmr titrations.

[2] = Cation binding titration, potassium (fluorescence and 19F NMR titrations); settings: 37° C.; from NMR
Procedure: as §1
as §2, with “The spectra were obtained with an acquisition time of 1.0 sec. and a 90° pulse and were processed with resolution enhancement (-0.5 of the observed line width) and appropriate gaussian sensitivity enhancement.” left out

[3] = Cation induced 19F NMR chemical shift, sodium; type: binding; set-up: key: fast exchange; slow exchange; settings: 37° C.
Procedure: as §2

[4] = Cation induced 19F NMR chemical shift, potassium; type: binding; set-up: key: fast exchange; slow exchange; settings: 37° C.
Procedure: as §2

cellular function = type: cell-based
Procedure: (§3) Lymphocytes (1 ml packed cells) were prepared from pig mesenteric lymphnodes by standard procedure in RPM1 medium. The cells suspended in RPM1 (200 ml) were treated with the tetra-acetoxymethyl ester of Example 3 (4.5 mg) in DMSO (100 μl) and incubated at 37° C. for 1 hour. The cells were isolated by centrifugation and suspended in RPM1 (20 ml) in the spectrometer probe, with continuous dialysis against oxygenated medium and the data collected. The signal appeared after 3 hours and was collected for a further 3 hours.

[5] = Selectivity for sodium ions over potassium (and other) ions; type: binding
Lymphocytes = assay: Intracellular sodium by 19F NMR in pig mesenteric lymph node lymphocytes; type: cell-based
Procedure: as §3

[6] = type: binding; settings: tris/acetic acid buffer
Procedure: as §1

For O=C(O)CN(CC(=O)O)c1ccc2c(c1)OCCN1CCOCCN(CCO2)c2ccc(F)cc2OCCOc2cc(F)ccc21 [Compound 7a], the “Cation Binding Constant (log k), Na+” value ([1]; from NMR) was 6, the “Cation Binding Constant (log k), K+” value [2] was 2.3 and the “Exchange (fast/slow), Na+” value [3] was “s”. The “Exchange (fast/slow), K+” value [4] was “f”.

In the case of CC(=O)c1cc2c(cc1N(CC(=O)O)CC(=O)O)OCCN1CCN(c3cccc(N(CC(=O)O)CC(=O)O)c3)CCN(CCO2)c2ccc(F)cc2OCCOc2cc(F)ccc21 [Compound 8d], the “Cation Binding Constant (log k), Na+” value ([1]; from NMR) is reported as 1.3 and the “Exchange (fast/slow), Na+” value [3] is reported as “f”.

With CC(=O)OCOC(=O)CN(CC(=O)OCOC(C)=O)c1cccc(N2CCN3CCOc4cc(C(C)=O)c(N(CC(=O)OCOC(C)=O)CC(=O)OCOC(C)=O)cc4OCCN(CC2)c2ccc(F)cc2OCCOc2cc(F)ccc23)c1 [Example 3] the “adverse effect on cellular function” value (cellular function) was “has not shown any adverse effect on cellular function”, the Kd ([1]; read-out: dissociation constant of the sodium complex) was 40 mM and the “selectivity for sodium ions (in words)” value [5] was “high selectivity for sodium over all other ions and in particular over potassium”. For the same compound, the “19F chemical shift downfield from the standard” value (Lymphocytes; 37° C., standard 1,2-bis (2-amino-5-fluorophenoxy) ethane-N,N,N',N'-tetracetic acid) was 5.99 ppm and the “intracellular sodium ion concentration indicated” value (Lymphocytes; from 19F chemical shift) was “about 13 mM”.

With O=C(O)CN(CC(=O)O)c1cccc(N2CCN3CCOc4ccc(N(CC(=O)O)CC(=O)O)cc4OCCN(CC2)c2ccc(F)cc2OCCOc2cc(F)ccc23)c1 [Compound 7d] the “Cation Binding Constant (log k), H+” value [6] was 7.0, the “Cation Binding Constant (log k), Na+” value ([1]; from NMR and from fluorescence at 370 nm) was 1.6 and the “Exchange (fast/slow), Na+” value [3] was “f”.
